What was measured:
Huh-7 cells = experiment: Cell viability, luminescence-based CellTiter-Glo assay, Huh-7 cells; settings: Homo sapiens, Huh-7, Huh-7 cells, cell viability; read-out: EC50 Huh-7
Procedure: The viability of Huh-7 cells was recorded using a luminescence-based CellTiter-Glo® assay. The screening concentration of the molecules were 10 μM with or without Fer-1 (10 μM) in DMEM media (>0.1% DMSO as control).
Ferroptosis is a unique form of cell death mechanism mediated by the accumulation of lipid peroxides in cells which is distinct from healthy cells' apoptosis, a programmed […] route. We aimed to exploit the induction of ferroptosis in cancer cells using covalent small molecules as a potential strategy for cancer therapeutic development. […] We used various amide bond formation chemistry to construct the library members and these molecules are well characterized by various spectroscopic and mass spectrometry techniques. Once confirmed, these thiol reactive library members were screened in a cancer cell viability assay in combination with ferrostatin-1 (Fer-1), a ferroptosis inhibitor as depicted in FIG. 11. […] We have screened a total of ˜50 electrophilic small molecules to prevent the proliferation of hepatocellular carcinoma (Huh-7 cells) in combination with and without Fer-1. From our initial screening, we identified haloacetamides of 2-aminoalkylbenzophenone as potential ferroptosis inducers as depicted in FIG. 11.
(§1) The viability of screened cancer cells was recorded using a luminescence-based CellTiter-Glo® assay for the ATP quantification. The screening concentration of the molecule ranged from 100/10 μM to 45/4.5 nM with an 8-point-3-fold dilution series in DMEM media (>0.1% DMSO as control). Each experiment was conducted in more than two biological replicates with three technical replicates. The error bar is a representation of standard deviation among the technical replicates.
The viability of screened cancer cells was recorded using a luminescence-based CellTiter-Glo® assay for the ATP quantification. The screening concentration of IITK3002 ranged from 10 μM to 4.5 nM with an 8-point-3-fold dilution series in DMEM media (>0.1% DMSO as control). Each experiment was conducted in more than two biological replicates with three technical replicates. The error bar is a representation of standard deviation among the technical replicates. […]
a. Electrophilic Warhead Optimization: Once we identified 2-benzoylphenyl-a-haloacetamide as the lead scaffold, we have investigated the structure-activity-relationship analysis to precisely capture the effect of various chemical handles of the scaffold and use the knowledge to improve the overall potency and selectivity of this molecule to prevent cancer cell proliferation. First, we changed the haloacetamide electrophilic unit with various other electrophiles with a characteristic high, moderate, and weak reactivity with thiols when compared to chloroacetamide. Therefore, we opted vinylsulfonamide (highly reactivity), acrylamide (moderate reactivity), and phenoxyacetamides (weak reactivity warheads) for incorporation in the place of haloacetamide warhead of the top hit scaffold. Once synthesized, these molecules were evaluated to assess their antiproliferative potency against Huh-7 cells (Table 2). As expected, the introduction of weakly reactive electrophilic warheads, phenoxyactamides, completely lost the activity against Huh-7 cells. […] Perhaps, the secondary interactions of the electrophilic warhead with the target proteins might play additional roles. Therefore, we shifted our focus to optimize the rest of the core scaffold for further SAR analysis. b. Role of N-Substitutions: Next, we synthesized the NH-derivative of haloacetamides to capture the importance of N-alkylation on the activity of our hit molecule. […] Perhaps the hydrogen bonding induced planarity around the warhead influences the molecules' weakened potency. Conversely, the additional flexibility in the lead molecule (tertiary amide) might contribute to the strong antiproliferative activity of the hit molecule. […]

U2OS = experiment: Cell viability, CellTiter-Glo assay, U2OS; type: cell-based; settings: Homo sapiens
Procedure: as §1
(§2) The viability of screened cancer cells was recorded using a luminescence-based CellTiter-Glo® assay for the ATP quantification. The screening concentration of IITK3002 ranged from 10 μM to 4.5 nM with an 8-point-3-fold dilution series in DMEM media (>0.1% DMSO as control). Each experiment was conducted in more than two biological replicates with three technical replicates. The error bar is a representation of standard deviation among the technical replicates.
(§3) a. […] In parallel, we have also synthesized the bromoacetamide (IITK3002) version of the lead molecules which is slightly more reactive with thiol nucleophiles when compared to chlorooacetamide warheads as depicted in FIG. 13. […] In addition, we also evaluated the molecules' antiproliferative potency against a panel of twelve different cancer phenotypes. The set of cancer cell lines included liver, breast, colon, myeloma, bone, blood, skin, brain and prostate lineages (FIG. 2, 3, Table 1).

PC3 = experiment: Cell viability, CellTiter-Glo assay, PC3; type: cell-based; settings: Homo sapiens, PC-3, PC3, cell viability
Procedure: as §1, §2, §3

22Rv1 = experiment: Cell viability, CellTiter-Glo assay, 22Rv1; type: cell-based; settings: Homo sapiens, 22Rv1, 22Rv1, cell viability
Procedure: as §1, §2, §3

A549 = experiment: Cell viability, A549; type: cell-based; settings: Homo sapiens

EC50 (Huh-7 cells) | EC50 (U2OS) | EC50 (PC3) | EC50 (22Rv1) | EC50 (A549) | SMILES
> 20 µM | > 20 µM | > 20 µM | > 20 µM | > 20 µM | C#CCN(C(=O)COc1ccccc1)c1ccccc1C(=O)c1ccccc1 [IITK3029, N-(2-benzoylphenyl)-2-phenoxy-N-(prop-2-yn-1-yl)acetamide]
– | – | – | – | 32.8 µM | C=CCN(C(=O)C=C)c1ccccc1C(=O)c1ccccc1 [IITK3026, N-allyl-N-(2-benzoylphenyl)acrylamide]
– | > 20 µM | > 20 µM | > 20 µM | > 20 µM | C=CS(=O)(=O)N(C)c1ccccc1C(=O)c1ccccc1 [IITK3011, N-(2-benzoylphenyl)-N-methylethenesulfonamide]
> 20 µM | > 20 µM | > 20 µM | > 20 µM | > 20 µM | O=C(c1ccccc1)c1ccccc1N(Cc1ccccc1)C(=O)COc1ccccc1 [IITK3036, N-(2-benzoylphenyl)-N-benzyl-2-phenoxyacetamide]
– | 0.6 µM | – | – | 2.4 µM | C=CCN(C(=O)CCl)c1ccccc1C(=O)c1ccccc1 [IITK3018, N-allyl-N-(2-benzoylphenyl)-2-chloroacetamide]
11.7 µM | 0.77 µM | – | – | 1.54 µM | C#CCOC(=O)Nc1ccc(N(C)C(=O)CBr)c(C(=O)c2ccccc2)c1 [IITK3053, prop-2-yn-1-yl (3-benzoyl-4-(2-bromo-N-methylacetamido)phenyl)carbamate]
– | > 20 µM | > 20 µM | > 20 µM | > 20 µM | C=CC(=O)N(C)c1ccccc1C(=O)c1ccccc1 [IITK3010, N-(2-benzoylphenyl)-N-methylacrylamide]
> 100 µM | > 20 µM | > 20 µM | > 20 µM | > 20 µM | CC(C)(C)c1ccc(OCC(=O)N(Cc2ccccc2)c2ccccc2C(=O)c2ccccc2)cc1 [IITK3038, N-(2-benzoylphenyl)-N-benzyl-2-(4-(tert-butyl)phenoxy)acetamide]
– | 0.03 µM | – | – | 0.3 µM | C=CCN(C(=O)CBr)c1ccccc1C(=O)c1ccccc1 [IITK3019, N-allyl-N-(2-benzoylphenyl)-2-bromoacetamide]
– | 1.22 µM | – | – | 1.92 µM | C=CCN(c1ccccc1C(=O)c1ccccc1)S(=O)(=O)C=C [IITK3027, N-allyl-N-(2-benzoylphenyl)ethenesulfonamide]
> 20 µM | – | 12.8 µM | – | – | CN(C(=O)COc1ccc(C(C)(C)C)cc1)c1ccccc1C(=O)c1ccccc1 [IITK3008, N-(2-benzoylphenyl)-2-(4-(tert-butyl)phenoxy)-N-methylacetamide]
– | – | – | 3.85 µM | – | O=C(c1ccccc1)c1ccccc1N(Cc1ccccc1)C(=O)CCl [IITK3034, N-(2-benzoylphenyl)-N-benzyl-2-chloroacetamide]
– | > 20 µM | > 20 µM | > 20 µM | > 20 µM | O=C(CCl)Nc1ccccc1C(=O)c1ccccc1 [IITK3012, N-(2-benzoylphenyl)-2-chloroacetamide]
– | 0.19 µM | 0.53 µM | 0.77 µM | 0.24 µM | O=C(c1ccccc1)c1ccccc1N(Cc1ccccc1)C(=O)CBr [IITK3035, N-(2-benzoylphenyl)-N-benzyl-2-bromoacetamide]
32.8 µM | 2.92 µM | – | – | 4.18 µM | C#CCOC(=O)Nc1ccc(N(C)C(=O)CCl)c(C(=O)c2ccccc2)c1 [IITK3052, prop-2-yn-1-yl (3-benzoyl-4-(2-chloro-N-methylacetamido)phenyl)carbamate]
– | > 100 µM | > 20 µM | > 20 µM | 20 µM | C=CCN(C(=O)COc1ccc(C(C)(C)C)cc1)c1ccccc1C(=O)c1ccccc1 [IITK3023, N-allyl-N-(2-benzoylphenyl)-2-(4-(tert-butyl)phenoxy)acetamide]
19.6 µM | > 20 µM | > 20 µM | > 20 µM | > 20 µM | CC(C)N(C(=O)CCl)c1ccccc1C(=O)c1ccccc1 [IITK3028, N-(2-benzoylphenyl)-2-chloro-N-isopropylacetamide]
– | 1.52 µM | – | – | – | O=C(CBr)Nc1ccccc1C(=O)c1ccccc1 [IITK3013, N-(2-benzoylphenyl)-2-bromoacetamide]
– | > 20 µM | > 20 µM | > 20 µM | > 20 µM | C=CCN(C(=O)COc1ccccc1)c1ccccc1C(=O)c1ccccc1 [IITK3020, N-allyl-N-(2-benzoylphenyl)-2-phenoxyacetamide]
> 100 µM | – | – | – | – | C=CCN(C(=O)COc1ccc([N+](=O)[O-])cc1)c1ccccc1C(=O)c1ccccc1 [IITK3025, N-allyl-N-(2-benzoylphenyl)-2-(4-nitrophenoxy)acetamide]
> 20 µM | – | – | – | – | C#CCN(C(=O)COc1ccc(C(C)(C)C)cc1)c1ccccc1C(=O)c1ccccc1 [IITK3032, N-(2-benzoylphenyl)-2-(4-(tert-butyl)phenoxy)-N-(prop-2-yn-1-yl)acetamide]
> 20 µM | > 20 µM | > 20 µM | > 20 µM | > 20 µM | C#CCN(C(=O)COc1ccc(Br)cc1)c1ccccc1C(=O)c1ccccc1 [IITK3033, N-(2-benzoylphenyl)-2-(4-bromophenoxy)-N-(prop-2-yn-1-yl)acetamide]
> 20 µM | > 20 µM | > 20 µM | > 20 µM | > 20 µM | CN(C(=O)COc1ccc(Br)cc1)c1ccccc1C(=O)c1ccccc1 [IITK3009, N-(2-benzoylphenyl)-2-(4-bromophenoxy)-N-methylacetamide]
4.82 µM | – | – | – | – | CN(C(=O)CBr)c1ccccc1C(=O)c1ccc(-c2ccc(C#N)cc2)cc1 [IITK3061, 2-bromo-N-(2-(4′-cyano-[1,1′-biphenyl]-4-carbonyl)phenyl)-N-methylacetamide]
0.036 µM | – | – | – | – | CN(C(=O)CCl)c1ccccc1C(=O)c1ccc(-c2cccc(Oc3ccccc3)c2)cc1 [IITK3062, 2-chloro-N-methyl-N-(2-(3′-phenoxy-[1,1′-biphenyl]-4-carbonyl)phenyl)acetamide]
> 20 µM | > 20 µM | – | – | – | O=C(COc1ccccc1)Nc1ccccc1C(=O)c1ccccc1 [IITK3014, N-(2-benzoylphenyl)-2-phenoxyacetamide]
0.117 µM | – | – | – | – | CN(C(=O)CCl)c1ccccc1C(=O)c1ccc(-c2ccc(C=O)cc2)cc1 [IITK3058, 2-chloro-N-(2-(4′-formyl-[1,1′-biphenyl]-4-carbonyl)phenyl)-N-methylacetamide]
– | 1.45 µM | – | – | 3.37 µM | C=CCN(C(=O)COc1c(F)c(F)c(F)c(F)c1F)c1ccccc1C(=O)c1ccccc1 [IITK3022, N-allyl-N-(2-benzoylphenyl)-2-(perfluorophenoxy)acetamide]

SMILES | EC50 (Huh-7 cells) | EC50 (U2OS) | EC50 (PC3) | EC50 (22Rv1) | EC50 (A549)
O=C(CBr)Nc1ccc([N+](=O)[O-])cc1C(=O)c1ccccc1 [IITK3051, N-(2-benzoyl-4-nitrophenyl)-2-bromoacetamide] | – | > 20 µM | > 20 µM | > 20 µM | > 20 µM

Reference: patent publication US20250099407A1, “2-AMINO BENZOPHENONE DERIVATIVES FOR TARGETED FERROPTOSIS INDUCTION IN CANCER THERAPY” (INDIAN INSTITUTE OF TECHNOLOGY KANPUR, priority 2023, published 2025)
